In patent US6413969B1, “Gatifloxacin pentahydrate” (Bristol-Myers Squibb Company, priority 2000, dated 2002):

Key:
infections = settings: cited from earlier work
[1] = tested on: broad spectrum of microorganisms including antibiotic-resistant strains of Streptococcus Pneumoniae; settings: cited from earlier work
[2] = parenterally and via oral administration; cited from earlier work
[3] = stability studies under stressed conditions of temperature and humidity; type: physicochemical
Description: It has been found in accordance with the present invention that the advantageous stability and solubility properties of the pentahydrate of gatifloxacin can be applied to the formulation of pharmaceutical dosage forms. While the pentahydrate of gatifloxacin can be utilized to prepare tablets by wet granulation, it can also be formulated in accordance with the present invention into stable pharmaceutical solid dosage forms by conventional dry granulation. […] Such formulations will include conventional inert ingredients such as binders, excipients, disintegrants, and the like. Examples of such agents include various starch derivatives such as pregelatinized starch, hydroxypropyl cellulose microcrystalline cellulose, sodium starch glycolate, magnesium stearate, lactose, mannitol and the like.

[4] = physical stability / interconversion of crystalline forms in water; type: physicochemical
Description: (§1) The crystal structures and ideal water content of seven of these forms were established through single crystal x-ray analyses. Each form gives rise to unique and characteristic single crystal and powder x-ray diffraction. The kinetic and thermodynamic relationships among the three major hydrates were investigated leading to the understanding of their stability order in water as a function of temperature and their interconversion relationship. […] The implications of these findings were very significant in the discovery and development of highly homogeneous gatifloxacin pentahydrate in accordance with the present invention. Further, these findings made it evident that very strict process controls were necessary in the production of crystalline gatifloxacin and dosage forms containing it and that it was necessary to obtain crystalline gatifloxacin pentahydrate in high homogeneity vs. the other crystalline forms in order to realize the advantageous properties thereof. By high homogeneity is meant that crystalline gatifloxacin pentahydrate must contain no detectable levels of the other crystalline forms thereof as determined by powder x-ray diffraction technique.

[5] = aqueous solubility of the crystalline hydrates; type: physicochemical; settings: for aqueous solubility (rank among the three major hydrates): water, 25° C., sesquihydrate, pentahydrate, hexahydrate compared
Description: as §1

[6] = cited from earlier work

Compound: COc1c(N2CCNC(C)C2)c(F)cc2c(=O)c(C(=O)O)cn(C3CC3)c12 (stereo not drawn) [Gatifloxacin, 1-cyclopropyl-6-fluoro-1,4-dihydro-8-methoxy-7-(3-methyl-1piperizinyl)-4-oxo-3-quinolinecarboxylic acid]
- overall tolerability (infections; in vivo): excellent overall tolerability
- safety and efficacy in treatment of infections (infections; individuals with impaired liver function): safe and efficacious
- effectiveness against microorganisms [1]: effective
- efficacy [2]: excellent efficacy

Compound: COc1c(N2CCNC(C)C2)c(F)cc2c(=O)c(C(=O)O)cn(C3CC3)c12 (stereo not drawn) [gatifloxacin pentahydrate, 1cyclopropyl-6-fluoro-1,4-dihydro-8-methoxy-7-(3-methyl-1-piperazinyl)-4-oxo-3-quinolinecarboxylic acid]
- form change or other degradation [3]: no evidence of form change or other degradation
- physical stability of the crystalline form ([4]; compared with the other crystalline forms, conversion over time): most physically stable form
- solubility compared with the metastable sesquihydrate ([5]; aqueous dosage forms): less soluble
- aqueous solubility (rank among the three major hydrates) ([5]; listed as pentahydrate): lowest

Compound: COc1c(N2CCNC(C)C2)c(F)cc2c(=O)c(C(=O)O)cn(C3CC3)c12 (stereo not drawn) [sesquihydrate]
- disintegration and dissolution rates of tablets in comparison to the hemihydrate ([6]; tablets made from the crystalline form): superior disintegration and dissolution rates
- stability in comparison to the hemihydrate ([6]; varying conditions of humidity): enhanced stability
- aqueous solubility (rank among the three major hydrates) [5]: highest

Compound: COc1c(N2CCNC(C)C2)c(F)cc2c(=O)c(C(=O)O)cn(C3CC3)c12 (stereo not drawn) [hemihydrate]
- tendency to form higher hydrates ([4]; in the presence of water): definite tendency to form higher hydrates
